The results in this text go back to ChEMBL document CHEMBL4513161, “CO-ADD screening of MMV (CH) - Pandemic Response Box” (2021).

For assay [1], the system named is Escherichia coli. The experiment in a line: microbe, parasite or virus in culture. As to conditions: ATCC 25922, 18 h, ASSAY_TEST Inhibition of Bacterial Growth, detection method Absorption (OD600), MEDIA CAMHB, plate type 384well, NBS, CORNING #3640.
Description: Antibacterial activity against Escherichia coli ATCC 25922 (CO-ADD:GN_001); MIC in CAMBH media using NBS plates, by OD(600)
The subject of assay [2] is Staphylococcus aureus. In words: microbe, parasite or virus in culture. Conditions: ATCC 43300, 18 h, ASSAY_TEST Inhibition of Bacterial Growth, detection method Absorption (OD600), MEDIA CAMHB, plate type 384well, NBS, CORNING #3640.
Description: Antibacterial activity against Staphylococcus aureus MRSA ATCC 43300 (CO-ADD:GP_020); MIC in CAMBH media, using NBS plates, by OD(600)
The test system of assay [3] is Candida albicans. The experiment in a line: microbe, parasite or virus in culture. Conditions: ATCC 90028, ASSAY_TEST Inhibition of Fungal Growth, detection method Absorption (OD530), plate type 384well, NBS, CORNING #3640.
Description: Antifungal activity against Candida albicans ATCC 90028 (CO-ADD:FG_001); MIC in YNB media using NBS plates, by OD630
Assay [4] relates to HEK293. The experiment in a line: cells. The format is functional, Homo sapiens, ATCC CRL1573. As to conditions: Homo sapiens, ATCC CRL1573, HEK293; ASSAY_TEST Inhibition of Cell Viability; detection method Resazurin; Fluorescence (ex560/em590); MEDIA DMEM with 10% FBS; plate type 384well; TC; CORNING #3712; time 18 hr; read-out: CC50.
In assay [5] the test system is Cryptococcus neoformans.
Description: Antifungal activity against Cryptococcus neoformans H99 ATCC 208821 (CO-ADD:FG_002); MIC in YNB media using NBS plates, by Resazurin OD(600-570)
Assay [6] relates to Pseudomonas aeruginosa. In words: Antibacterial activity against Pseudomonas aeruginosa PAO397 [PAO1 d(mexAB-oprM) d(mexCD-oprJ) d(mexEF-oprN) d(mexJKL) d(mexXY) d(opmH)] (CO-ADD:GN_211); MIC in CAMBH media using NBS plates, by OD(600). The class given is functional. As to conditions: ASSAY_TEST Inhibition of Bacterial Growth, detection method Absorption (OD600), MEDIA CAMHB, plate type 384well, CORNING #3640, time 18 hr.

In assay [7] the test system is Acinetobacter baumannii. The experiment in a line: microbe, parasite or virus in culture. As to conditions: ATCC 19606, 18 h, ASSAY_TEST Inhibition of Bacterial Growth, detection method Absorption (OD600), MEDIA CAMHB, plate type 384well, NBS, CORNING #3640.
Description: Antibacterial activity against Acinetobacter baumannii ATCC 19606 (CO-ADD:GN_034); MIC in CAMBH media using NBS plates, by OD600
Assay [8] deals with Klebsiella pneumoniae. The experiment in a line: microbe, parasite or virus in culture. Conditions: ATCC 700603, 18 h, ASSAY_TEST Inhibition of Bacterial Growth, detection method Absorption (OD600), MEDIA CAMHB, plate type 384well, NBS, CORNING #3640.
Description: Antibacterial activity against Klebsiella pneumoniae MDR ATCC 70063 (CO-ADD:GN_003); MIC in CAMBH media using NBS plates, by OD(600)
For assay [9], the system named is Pseudomonas aeruginosa. The experiment in a line: microbe, parasite or virus in culture. As to conditions: ATCC 27853, 18 h, ASSAY_TEST Inhibition of Bacterial Growth, detection method Absorption (OD600), MEDIA CAMHB, plate type 384well, NBS, CORNING #3640.
Description: Antibacterial activity against Pseudomonas aeruginosa ATCC 27853 (CO-ADD:GN_042); MIC in CAMBH media using NBS plates, by OD(600)

≈ marks a conversion by molar mass, not a printed value. Structures can show the parent of a compound that is named as a salt. A value given as a limit tells only on which side of the number the result lay.

As for `CN1CCN(c2ccc3[nH]c(-c4ccc5[nH]c(-c6ccc(O)cc6)nc5c4)nc3c2)CC1` [HOECHST 33258], the MIC was more than 20 µM in [1]; more than 20 µM in assay [2]; 5 µM (≈ 2.12 µg/mL) in assay [3]; 2.5 µM (≈ 1.06 µg/mL) in [5]; 20 µM (≈ 8.49 µg/mL) in assay [6]; more than 20 µM in assay [7]. The MIC in assay [8] and in assay [9] was more than 20 µM each time. In addition, the 50% cytotoxic concentration (CC50) in assay [4] is more than 20 µM.
For the compound `CCC[C@H](NC(=O)[C@@H]1[C@H]2CCC[C@H]2CN1C(=O)[C@@H](NC(=O)[C@@H](NC(=O)c1cnccn1)C1CCCCC1)C(C)(C)C)C(=O)C(=O)NC1CC1`, the MIC in assay [1], in assay [2], in assay [3], in [5], in assay [6] and in [7] was more than 20 µM each time. The MIC in assay [8] and in assay [9] was more than 20 µM each time. Moreover, in assay [4], the half-maximal cytotoxic concentration (CC50) is more than 20 µM.
As to `COC1CC2CCC(C)C(O)(O2)C(=O)C(=O)N2CCCCC2C(=O)OC(C(C)CC2CCC(OCCO)C(OC)C2)CC(=O)C(C)/C=C(\C)C(O)C(OC)C(=O)C(C)CC(C)/C=C/C=C/C=C/1C` (stereo not given), the MIC in assay [1] is more than 20 µM; in assay [2], more than 20 µM; in assay [3], not above 0.156 µM; in assay [5] it was not above 0.156 µM; in assay [6], more than 20 µM; in assay [7], more than 20 µM. Moreover, the MIC in assay [8] and in [9] was more than 20 µM each time. Also, in [4], the 50% cytotoxic concentration (CC50) was more than 20 µM.
For the compound `C[C@@H](NC(=O)c1cccc(-c2cnc(-c3cc4ccccc4cn3)[nH]2)c1)c1ccc(F)cc1`, the MIC in assay [1], in assay [2], in assay [3], in assay [5], in assay [6] and in assay [7] was more than 20 µM throughout. For the same compound, the MIC in [8] and in assay [9] was more than 20 µM in each case. Moreover, in [4], the 50% cytotoxic concentration (CC50) amounted to 10.8 µM.
Regarding `CC1CN(c2ncnc3c2c(-c2ccccc2)cn3-c2ccc(F)cc2)CC(C)O1` (stereo not given), the MIC in assay [1], in assay [2], in assay [3], in [5], in [6] and in assay [7] was more than 20 µM each time. Further, the MIC in [8] and in assay [9] was more than 20 µM throughout. In [4], the CC50 is more than 20 µM.
As for `Nc1nc2c(Cc3cccnc3)c[nH]c2c(=O)[nH]1` [PELDESINE], the MIC in assay [1], in assay [2], in assay [3], in assay [5], in [6] and in assay [7] was more than 20 µM each time. The MIC in assay [8] and in assay [9] was more than 20 µM throughout. Besides, in [4], the CC50 was more than 20 µM.
On to `c1ccc(-c2nnc3c4ccccc4c(N4CCNCC4)nn23)cc1`, for which the MIC in [1], in assay [2], in assay [3], in [5], in assay [6] and in [7] was more than 20 µM throughout. For the same compound, the MIC in [8] and in assay [9] was more than 20 µM in each case. Moreover, the CC50 in assay [4] was 14.2 µM.
For `CN(C)CCNC(=O)c1cccc2cccnc12`, the MIC in assay [1], in assay [2], in assay [3], in [5], in [6] and in [7] was more than 20 µM throughout. Besides, the MIC in assay [8] and in assay [9] was more than 20 µM each time. In addition, the CC50 in assay [4] was more than 20 µM.
On to `Cc1c(N)cccc1Cn1ccc(OCCc2cccs2)cc1=O` [CG-400549], for which the MIC in assay [1] was more than 20 µM; in assay [2], 0.625 µM (≈ 0.213 µg/mL); in assay [3], more than 20 µM; in assay [5], more than 20 µM; in [6] it was more than 20 µM; in [7], more than 20 µM. Also, the MIC in assay [8] and in [9] was more than 20 µM each time. Also, in [4], the cytotoxic concentration (CC50) was more than 20 µM.
Take `COC(=O)Nc1nc2c(C)cccc2[nH]1`: the MIC in [1], in assay [2], in [3], in [5], in assay [6] and in assay [7] was more than 20 µM each time. Besides, the MIC in assay [8] and in [9] was more than 20 µM in each case. Besides, in assay [4], the CC50 is more than 20 µM.
As to `O=C(NCc1ccc2c3c(cccc13)C(=O)N2)c1cccs1`, the MIC in assay [1], in assay [2], in assay [3], in assay [5], in assay [6] and in [7] was more than 20 µM throughout. The MIC in [8] and in assay [9] was more than 20 µM each time. In [4], the 50% cytotoxic concentration (CC50) was more than 20 µM.
`O=C(O)c1cc(-c2ccccc2)nc2ccccc12` [CINCHOPHEN]: the MIC in [1], in assay [2], in assay [3], in [5], in assay [6] and in assay [7] was more than 20 µM each time. The MIC in assay [8] and in assay [9] was more than 20 µM throughout. For the same compound, the CC50 in assay [4] is more than 20 µM.
Regarding `Fc1ccc(-n2cc(Cn3c(-c4cccc(F)c4)nc4ccccc43)nn2)cc1`, the MIC in assay [1], in assay [2], in [3], in assay [5], in assay [6] and in assay [7] was more than 20 µM each time. Also, the MIC in assay [8] and in assay [9] was more than 20 µM throughout. Besides, in assay [4], the CC50 is more than 20 µM.
With `COC(=O)Nc1nc2cc(Sc3ccccc3)ccc2[nH]1` [FENBENDAZOLE], the MIC in assay [1] was more than 20 µM; in assay [2] it was more than 20 µM; in assay [3], more than 20 µM; in assay [5], 0.312 µM (≈ 0.0935 µg/mL); in assay [6] it was more than 20 µM; in assay [7], more than 20 µM. Further, the MIC in [8] and in [9] was more than 20 µM throughout. Besides, the CC50 in assay [4] came to 8.24 µM.
As to `Nc1nc(NC2Cc3ccc(F)cc3C2)nc(N2CCCCC2)n1` (stereo not given), the MIC in assay [1], in [2], in assay [3], in [5], in assay [6] and in assay [7] was more than 20 µM in each case. Moreover, the MIC in assay [8] and in assay [9] was more than 20 µM throughout. Further, the CC50 in [4] was more than 20 µM.
Regarding `Cc1nc(N(C)C(=O)Cc2ccc(-c3ccccn3)cc2)sc1S(N)(=O)=O`, the MIC in [1], in assay [2], in assay [3], in assay [5], in assay [6] and in [7] was more than 20 µM throughout. Further, the MIC in [8] and in assay [9] was more than 20 µM in each case. In addition, in assay [4], the CC50 was more than 20 µM.
In the case of `Oc1ccc2[nH]c(-c3ccccc3)nc2c1`, the MIC in [1], in assay [2], in [3], in assay [5], in assay [6] and in assay [7] was more than 20 µM throughout. For the same compound, the MIC in assay [8] and in [9] was more than 20 µM each time. For the same compound, in assay [4], the CC50 is more than 20 µM.
In the case of `CC(=O)Nc1cc(NS(=O)(=O)c2ccc(Cl)cc2)cc2c(Cl)[nH]nc12`, the MIC in assay [1], in [2], in assay [3], in [5], in assay [6] and in [7] was more than 20 µM throughout. Besides, the MIC in assay [8] and in assay [9] was more than 20 µM in each case. Besides, the CC50 in assay [4] was more than 20 µM.
`CCn1cc(C(=O)O)c(=O)c2cc(F)c(N3CCNC(C)C3)c(F)c21` (stereo not given) [LOMEFLOXACIN HYDROCHLORIDE]: the MIC in assay [1] was 0.625 µM; in assay [2], 10 µM; in [3] it was more than 20 µM; in assay [5] it was more than 20 µM; in [6] it was 0.312 µM; in [7], 20 µM. The MIC in [8] is 20 µM; in assay [9], more than 20 µM. Also, the CC50 in assay [4] is more than 20 µM.
Regarding `CN(O)C(=O)c1cc2c(CN3CCC[C@H]3C(N)=O)cn(Cc3ccc(F)cc3)c2cn1`, the MIC in assay [1], in assay [2], in assay [3], in assay [5], in assay [6] and in assay [7] was more than 20 µM throughout. Besides, the MIC in [8] and in assay [9] was more than 20 µM throughout. Further, in assay [4], the half-maximal cytotoxic concentration (CC50) is more than 20 µM.
